In PubChem BioAssay (NCI):
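Results reflect a 48-hour exposure of cells in 96-well plates to compound at five concentrations. The concentration for 50% growth inhibition is given as GI50. At the TGI there is no net growth.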

Columns and labels:
Experiment in all cases: NCI tumour cell line growth inhibition, 48 h
[1] = system: ACHN renal
[2] = system: HCT-116 colon
[3] = system: LOX IMVI melanoma
[4] = system: NCI-H226 lung
[5] = system: RPMI-8226 leukemia
[6] = system: SF-539 CNS
[7] = system: SK-MEL-2 melanoma
[8] = system: SK-MEL-5 melanoma
[9] = system: SK-OV-3 ovarian
[10] = system: SN12C renal
[11] = system: SR leukemia
[12] = system: UO-31 renal
[13] = system: RXF 393 renal
[14] = system: SNB-75 CNS
[15] = system: HL-60(TB) leukemia

Structure (SMILES)	TGI [1]	TGI [2]	TGI [3]	TGI [4]	TGI [5]	TGI [6]	TGI [7]	TGI [8]	TGI [9]	TGI [10]	TGI [11]	TGI [12]	TGI [13]	TGI [14]	TGI [15]	GI50 [15]	GI50 [13]	GI50 [8]	GI50 [9]	GI50 [11]
COc1ccc(OC)c2c1C=CC(Br)=CC2	> 1 µM	0.672 µM	0.302 µM	> 1 µM	0.387 µM	> 1 µM	0.247 µM	> 1 µM	0.358 µM	> 1 µM	0.488 µM	> 1 µM	–	–	–	–	–	–	–	–
CC(Nc1ccc(Cl)c(Cl)c1)c1ccncc1 (centres undefined)	> 100 µM	36.5 µM	40 µM	81.6 µM	28.7 µM	56.4 µM	55.6 µM	30.3 µM	29.3 µM	> 100 µM	–	31.1 µM	54.3 µM	97.7 µM	–	–	–	–	–	–
O=C1CC(CC(=O)c2ccc(Br)cc2)C(=O)/C1=C(/O)c1ccc(Br)cc1 (centres undefined)	> 100 µM	> 100 µM	> 100 µM	> 100 µM	> 100 µM	> 100 µM	> 100 µM	> 100 µM	> 100 µM	> 100 µM	> 100 µM	> 100 µM	> 100 µM	–	> 100 µM	–	–	–	–	–
O=Cc1cc(C(=O)OCc2ccccc2)n(S(=O)(=O)c2ccccc2)c1	36.6 µM	25.7 µM	62.5 µM	–	–	28.6 µM	39.6 µM	20.2 µM	66.3 µM	66.1 µM	> 100 µM	44.1 µM	94.9 µM	82.1 µM	63 µM	–	–	–	–	–
CCOP(=O)(OCC)C(C(=O)OC)C(=O)C(=O)Nc1cccc(O)c1 (centres undefined)	> 100 µM	> 100 µM	> 100 µM	> 100 µM	–	> 100 µM	> 100 µM	> 100 µM	> 100 µM	> 100 µM	> 100 µM	> 100 µM	> 100 µM	> 100 µM	–	–	–	–	–	–
CCCSc1ccc2[nH]c(N3C(=O)/C(=C/c4ccc(SC)cc4)N=C3c3ccccc3)cc2c1	> 50 µM	> 50 µM	> 50 µM	> 50 µM	–	48.8 µM	> 38.5 µM	> 36.3 µM	> 50 µM	> 50 µM	–	> 50 µM	> 46.6 µM	> 50 µM	24.8 µM	–	–	–	–	–
COc1cc2c(c(OC)c1OC)-c1ccc(SC)c(=O)cc1[C@@H](O)CC2	> 100 µM	> 100 µM	> 100 µM	0.0169 µM	> 100 µM	–	–	–	–	> 100 µM	–	> 100 µM	> 100 µM	> 100 µM	–	6.13 µM	> 100 µM	0.000311 µM	> 100 µM	0.0667 µM
[B-][P+](CC[P+]1([B-])[C@@H](C)[C@@H](O)[C@H](O)[C@@H]1C)(c1ccccc1)c1ccccc1OC (some centres undefined)	31.6 µM	35.3 µM	8.51 µM	31.8 µM	55.4 µM	31.6 µM	30.2 µM	29.3 µM	37.6 µM	26.2 µM	–	21.7 µM	31.2 µM	28.3 µM	54 µM	–	–	–	–	–
CC(=O)OCC1OC(n2c3c(c(-c4ccc(Cl)cc4)c(C#N)c2=S)CCCC3)C(OC(C)=O)C(OC(C)=O)C1OC(C)=O (centres undefined)	> 100 µM	> 100 µM	> 100 µM	> 100 µM	–	> 100 µM	63.3 µM	58.6 µM	> 100 µM	> 100 µM	> 100 µM	> 100 µM	84.4 µM	79.6 µM	> 100 µM	–	–	–	–	–
COc1ccccc1C(O)[C@@H]1C[C@@H]2[C@H]3CC[C@@](C)([C@@H]2O1)C3(C)C (some centres undefined)	35.4 µM	43.1 µM	35.8 µM	–	78.7 µM	24.2 µM	34.3 µM	31.6 µM	87.1 µM	30.3 µM	48.3 µM	32.4 µM	32.6 µM	37.7 µM	49.1 µM	–	–	–	–	–
O=C1NN(Cc2ccccc2)C(=O)N2CCC[C@@H]12	> 100 µM	> 100 µM	> 100 µM	> 100 µM	–	> 100 µM	> 100 µM	> 100 µM	> 100 µM	> 100 µM	–	–	> 100 µM	–	> 100 µM	–	–	–	–	–
Nc1ncnc2c1ncn2C1CCC(CP(=O)(O)O)C1 (centres undefined)	> 100 µM	> 100 µM	> 100 µM	> 100 µM	> 100 µM	> 100 µM	> 100 µM	> 100 µM	> 100 µM	> 100 µM	–	> 100 µM	> 100 µM	–	> 100 µM	–	–	–	–	–
O=[N+]([O-])c1ccc(-n2nc3ccc4c(no[n+]4[O-])c3n2)cc1	> 100 µM	> 100 µM	> 100 µM	> 100 µM	–	> 100 µM	> 100 µM	> 100 µM	> 100 µM	> 100 µM	> 100 µM	> 100 µM	–	> 100 µM	> 100 µM	–	–	–	–	–
CN(CCCNC(=O)c1cn(C)c2c1Cc1ccccc1-2)CCCNC(=O)c1cn(C)c2c1Cc1ccccc1-2	22.9 µM	22.2 µM	24.6 µM	41.4 µM	> 100 µM	31.8 µM	30.6 µM	28.4 µM	32.6 µM	27 µM	11.1 µM	21.8 µM	34.9 µM	–	28.6 µM	–	–	–	–	–
CCC1(c2ccc(N3C(=O)c4cc(OC)c(OC)cc4C3=O)cc2)CCC(=O)NC1=O (centres undefined)	> 10 µM	> 10 µM	> 10 µM	> 10 µM	> 10 µM	> 10 µM	> 10 µM	> 10 µM	> 10 µM	> 10 µM	> 10 µM	> 10 µM	> 10 µM	–	> 10 µM	–	–	–	–	–
COc1nc(N)c(NC(C)=O)c(=O)n1C	> 100 µM	> 100 µM	> 100 µM	–	> 100 µM	> 100 µM	> 100 µM	–	–	> 100 µM	> 100 µM	> 100 µM	> 100 µM	> 100 µM	> 100 µM	–	–	–	–	–
COC(=O)c1cc(NC(=O)Cc2c[nH]c3ccccc23)cn1C	> 100 µM	> 100 µM	> 100 µM	> 100 µM	63.9 µM	> 100 µM	> 100 µM	> 100 µM	> 100 µM	> 100 µM	> 100 µM	> 100 µM	> 100 µM	–	> 100 µM	–	–	–	–	–

Structure (SMILES)	TGI [1]	TGI [2]	TGI [3]	TGI [4]	TGI [5]	TGI [6]	TGI [7]	TGI [8]	TGI [9]	TGI [10]	TGI [11]	TGI [12]	TGI [13]	TGI [14]	TGI [15]	GI50 [15]	GI50 [13]	GI50 [8]	GI50 [9]	GI50 [11]
COc1ccc2c(c1)CCCN1CCc3ccccc3C21 (centres undefined)	> 100 µM	72.1 µM	> 100 µM	80 µM	–	75.8 µM	> 100 µM	> 100 µM	> 100 µM	77.7 µM	61.2 µM	–	73 µM	66.1 µM	43.3 µM	–	–	–	–	–
CC(=O)NCC1OC2COC(c3ccccc3)OC2C(NC(=O)c2ccccc2)C1OC(=O)c1ccccc1 (centres undefined)	> 100 µM	> 100 µM	> 100 µM	> 100 µM	–	> 100 µM	> 100 µM	> 100 µM	> 100 µM	> 100 µM	–	> 100 µM	> 100 µM	> 100 µM	> 100 µM	–	–	–	–	–
C/C=C1\CN2CCc3c([nH]c4ccccc34)C2CC1CCO (centres undefined)	> 100 µM	> 100 µM	> 100 µM	> 100 µM	–	> 100 µM	> 100 µM	> 100 µM	> 100 µM	> 100 µM	> 100 µM	> 100 µM	> 100 µM	> 100 µM	> 100 µM	–	–	–	–	–
CCCCc1ccc(Nc2nc(OC)c3ncn(C4CC(O)C(CO)O4)c3n2)cc1 (centres undefined)	31.2 µM	29.8 µM	31.4 µM	44.5 µM	71.9 µM	29 µM	47.5 µM	33.8 µM	27.8 µM	26.5 µM	–	35.7 µM	31.7 µM	36.1 µM	4.16 µM	–	–	–	–	–
Cc1cc(=O)oc2cc(OCC(O)COC(C)C)ccc12 (centres undefined)	> 100 µM	> 100 µM	> 100 µM	–	> 100 µM	–	–	> 100 µM	> 100 µM	> 100 µM	> 100 µM	> 100 µM	–	> 100 µM	> 100 µM	–	–	–	–	–
CC(=O)O[C@H]1C(=O)[C@@]2(C)[C@H]([C@H](OC(=O)c3ccccc3)[C@]3(O)C[C@H](OC(=O)[C@H](O)[C@@H](NC(=O)c4ccco4)c4ccccc4)C(C)=C1C3(C)C)[C@]1(OC(C)=O)CO[C@@H]1C[C@@H]2O	> 12.5 µM	> 12.5 µM	> 12.5 µM	–	< 0.00125 µM	0.00454 µM	–	> 12.5 µM	0.0107 µM	–	> 12.5 µM	> 12.5 µM	–	–	< 0.00125 µM	–	–	–	–	–
CSc1ccc(Nc2cc(=O)[nH]c(=O)[nH]2)cc1	> 100 µM	> 100 µM	> 100 µM	> 100 µM	> 100 µM	> 100 µM	> 100 µM	> 100 µM	> 100 µM	> 100 µM	> 100 µM	> 100 µM	–	–	> 100 µM	–	–	–	–	–
CSCSCC(CO)NC(=O)/C(C)=C\c1c(C)[nH]c(=O)[nH]c1=O (centres undefined)	–	> 250 µM	> 250 µM	> 250 µM	> 250 µM	> 250 µM	> 250 µM	> 250 µM	> 250 µM	> 250 µM	–	> 250 µM	> 250 µM	> 250 µM	> 250 µM	–	–	–	–	–
COC(=O)/C=C1/OC(c2ccccc2)=C(C)C1=O	25.7 µM	15.4 µM	2.72 µM	38.6 µM	5.65 µM	32.2 µM	–	34.2 µM	22.6 µM	–	7.09 µM	26.7 µM	22.5 µM	43 µM	4.97 µM	–	–	–	–	–
N[C@@H]1CCN(c2c(F)cc3c(=O)c(C(=O)O)cn4c3c2Oc2cc3c(ccc5ccccc53)cc2-4)C1	> 41.7 µM	18.5 µM	> 63.7 µM	> 100 µM	> 100 µM	28.5 µM	> 78 µM	> 40 µM	–	> 100 µM	–	> 100 µM	> 100 µM	> 100 µM	> 59.9 µM	–	3.78 µM	–	–	–
CCOC(=O)c1c(NC(=S)Nc2ccc(Cl)cc2)sc2c1CCN(C)C2	> 100 µM	> 100 µM	–	> 100 µM	> 100 µM	> 100 µM	> 100 µM	> 100 µM	–	> 100 µM	–	> 100 µM	> 100 µM	–	> 100 µM	–	–	–	–	–
COc1cccc(/C=C2\S/C(=N/Nc3nc(C)c(C)s3)NC2=O)c1O	> 100 µM	> 100 µM	> 100 µM	> 100 µM	–	> 100 µM	> 100 µM	> 100 µM	> 100 µM	> 100 µM	–	> 100 µM	> 100 µM	> 100 µM	> 100 µM	–	–	–	–	–
COC1(OC)C2(Cl)C(Cl)=C(Cl)C1(Cl)C1C2C2CC1(C(=O)O)c1ccccc12 (centres undefined)	> 100 µM	33.8 µM	32 µM	52.5 µM	54.5 µM	–	–	30.5 µM	91.3 µM	40.9 µM	42.2 µM	44.7 µM	–	–	43.1 µM	–	–	–	–	–
C=C1C(=O)O[C@H]2C1C[C@@H](OC(C)=O)/C(C)=C/CC[C@@]1(C)O[C@H]21 (some centres undefined)	15.2 µM	20.9 µM	19.1 µM	–	13.6 µM	–	57.9 µM	18.4 µM	64 µM	29.2 µM	20.1 µM	17 µM	20.2 µM	62.7 µM	–	–	–	–	–	–
Cc1ccc(C)n2c1nc1ccccc12	> 100 µM	–	–	> 100 µM	> 100 µM	> 100 µM	–	> 100 µM	> 100 µM	> 100 µM	> 100 µM	> 100 µM	> 100 µM	> 100 µM	> 100 µM	–	–	–	–	–
Cn1cc2ccccc2c1-c1nc(F)nc(Oc2ccc3c(c2)CC[C@@H]2C3CC[C@@]3(C)C2C[C@H](O)[C@@H]3O)n1 (some centres undefined)	47.6 µM	28.1 µM	–	–	41.9 µM	28.9 µM	38.1 µM	36.8 µM	52.2 µM	31.6 µM	–	32.3 µM	66.6 µM	41.1 µM	43.7 µM	–	–	–	–	–
